This data set in a line: pharmacokinetics in human clinical trials, plasma KRN7000 by LC-MS/MS. The class given is in vivo. The following applies: patients; for Cmax / AUC(0-t): plasma, iv. As for the experimental part:
In a phase I clinical trial, RGI-2001-001 was administered intravenously at a dose of 100 μg/kg as KRN7000 within 30 minutes after transplantation to six patients who had received hematopoietic stem cell transplantation. 2 mL of peripheral blood was collected before and 0.5, 1, 2, 4, 6, 8, 24, 48, 72, and 96 hours after transplantation, respectively, and plasma components were collected. KRN7000 in each plasma was separated and identified by liquid chromatography-mass spectrometry (LC-MS/MS).
Similarly, RGI-2001-003 was administered intravenously at a dose of 100 μg/kg as KRN7000 within 30 minutes after transplantation to seven patients who had received hematopoietic stem cell transplantation, and 2 mL of peripheral blood was collected before and 0.5, 2, 4, 6, 8, 24, and 48 hours after transplantation. Plasma components were collected, and plasma KRN7000 was separated and identified by LC-MS/M. These patients were treated with RGI-2001-003 at a dose of 100 μg/kg as KRN7000 intravenously once a week for 5 to 6 consecutive doses. For the administration on day 14, 2 mL of peripheral blood was collected before and 0.5 and 4 hours after administration, respectively, plasma components were collected, and plasma KRZN7000 was separated and identified by LC-MS/M. The NKT response and the number of activated Tregs (Ki-67+%) in patients treated with RGI-2001-003 administration were monitored over time.

[1] abbreviates: 100 ug/kg, plasma KRN7000 after RGI-2001-003 iv 100 μg/kg weekly, Day 0.

Like-named read-outs stand apart in the source and are kept apart here.

Broadly, the half-life is the time in which the quantity being followed falls by half. A low value points to fast loss. By Cmax is commonly meant the maximum level reached in the sampled fluid or tissue.

With `CCCCCCCCCCCCCCCCCCCCCCCCCC(=O)N[C@@H](CO[C@H]1OC(CO)[C@H](O)C(O)C1O)[C@H](O)[C@H](O)CCCCCCCCCCCCCC` (stereo partly drawn) [KRN7000, (2S,3S,4R)-1-o-(α-D-galactopyranosyl)-2-(N-hexacosanoylamino)-1,3,4-octadecanetriol], the concentration at 14 day (100 μg/kg as KRN7000, plasma KRN7000 after RGI-2001-003 iv 100 μg/kg weekly, Day 14, read-out: Cmin) came to 34.1 ng/mL. The compound also gave a half-life under setting [1] of 35.8 h. For the same compound, where the note is “100 ug/kg, plasma KRN7000 after RGI-2001-003 iv 100 μg/kg weekly, Day 0, read-out: *Est. AUC0-inf”, the AUC(0-inf) worked out at 42500 ng·h/mL. Besides, the Cmax stood at 881 ng/mL under setting [1] and 570 ng/mL (100 ug/kg, plasma KRN7000 after RGI-2001-003 iv 100 μg/kg weekly, Day 14). Also, the AUC(0-t) by setting is: (100 ug/kg, plasma KRN7000 after RGI-2001-003 iv 100 μg/kg weekly, Day 0, read-out: AUC0-4) 3000 ng·h/mL; (100 ug/kg, plasma KRN7000 after RGI-2001-003 iv 100 μg/kg weekly, Day 14, read-out: AUC0-4) 1890 ng·h/mL.

The values are drawn from US12599559B2, “CD1d-ligand-compound-containing liposome preparation having improved pharmacokinetics” (REGiMMUNE Corporation, priority 2020, dated 2026).
